Species on record: Rattus norvegicus
Assay: Open TG-GATES - Regimen: Single
Type: toxicity, organism-based, Sprague-Dawley
Design: regimen Single, gender Male, age 6 weeks
Conditions: in vivo, iv, route intravenous injection; for TBIL / TC / TG / TP / gamma-GTP / A/G / ALP / ALT / AST / BUN / CRE / Ca / Cl / DBIL / GLC / IP / K / LDH / Na / PL / RALB: tissue Plasma; for APTT / Bas / Eos / Fbg / Hb / Ht / Lym / MCH / MCHC / MCV / Mono / Neu / PT / Plat / RBC / Ret / WBC: tissue Blood; for KIDNEY_L / KIDNEY_R / KIDNEY_TOTAL: tissue Kidney; for LIVER: tissue Liver
[1] = 0 mg/kg, 24 h, dose level Control

SMILES: C[C@@H]1C[C@@H]([C@H](O)CC2CC(=O)NC(=O)C2)C(=O)[C@@H](C)C1 [CYCLOHEXIMIDE]
- TBIL [1]: 0.018 mg/dL
- TC [1]: 75 mg/dL
- TG [1]: 83.2 mg/dL
- TP [1]: 5.6 g/dL
- gamma-GTP [1]: 1.8 IU/L
- TERMINAL_BW (1 mg/kg, 3 h, dose level Low): 216.3 g
- APTT (1 mg/kg, 3 h, dose level Low): 20.1 s
- Bas (1 mg/kg, 3 h, dose level Low): 0%
- Eos (1 mg/kg, 3 h, dose level Low): 0.6%
- Fbg (1 mg/kg, 3 h, dose level Low): 275.2 mg/dL
- Hb (1 mg/kg, 3 h, dose level Low): 13.1 g/dL
- Ht (1 mg/kg, 3 h, dose level Low): 38.5%
- Lym (1 mg/kg, 3 h, dose level Low): 73.2%
- MCH (1 mg/kg, 3 h, dose level Low): 21.7 pg
- MCHC (1 mg/kg, 3 h, dose level Low): 34%
- MCV (1 mg/kg, 3 h, dose level Low): 63.7 fL
- Mono (1 mg/kg, 3 h, dose level Low): 2.4%
- Neu (1 mg/kg, 3 h, dose level Low): 22.2%
- PT (1 mg/kg, 3 h, dose level Low): 17.6 s
- Plat (1 mg/kg, 3 h, dose level Low): 121.9 x10_4/uL
- RBC (1 mg/kg, 3 h, dose level Low): 605.6 x10_4/ul
- Ret (1 mg/kg, 3 h, dose level Low): 8.4%
- WBC (1 mg/kg, 3 h, dose level Low): 174.9 x10_2/uL
- KIDNEY_L (1 mg/kg, 3 h, dose level Low): 0.9 g
- KIDNEY_R (1 mg/kg, 3 h, dose level Low): 0.9 g
- KIDNEY_TOTAL (1 mg/kg, 3 h, dose level Low): 1.9 g
- LIVER (1 mg/kg, 3 h, dose level Low): 9 g
- A/G (1 mg/kg, 3 h, dose level Low): 1.4
- ALP (1 mg/kg, 3 h, dose level Low): 1054.4 IU/L
- ALT (1 mg/kg, 3 h, dose level Low): 46 IU/L
- AST (1 mg/kg, 3 h, dose level Low): 86 IU/L
- BUN (1 mg/kg, 3 h, dose level Low): 23.6 mg/dL
- CRE (1 mg/kg, 3 h, dose level Low): 0.1 mg/dL
- Ca (1 mg/kg, 3 h, dose level Low): 9.6 mg/dL
- Cl (1 mg/kg, 3 h, dose level Low): 107.4 meq/L
- DBIL (1 mg/kg, 3 h, dose level Low): 0.002 mg/dL
- GLC (1 mg/kg, 3 h, dose level Low): 145.6 mg/dL
- IP (1 mg/kg, 3 h, dose level Low): 9.1 mg/dL
- K (1 mg/kg, 3 h, dose level Low): 4.3 meq/L
- LDH (1 mg/kg, 3 h, dose level Low): 174 IU/L
- Na (1 mg/kg, 3 h, dose level Low): 142.2 meq/L
- PL (1 mg/kg, 3 h, dose level Low): 78.8 mg/dL
- RALB (1 mg/kg, 3 h, dose level Low): 2.8 g/dL
- TBIL (1 mg/kg, 3 h, dose level Low): 0.016 mg/dL
- TC (1 mg/kg, 3 h, dose level Low): 55.2 mg/dL
- TG (1 mg/kg, 3 h, dose level Low): 61.6 mg/dL
- TP (1 mg/kg, 3 h, dose level Low): 4.9 g/dL
- gamma-GTP (1 mg/kg, 3 h, dose level Low): 1.6 IU/L
- TERMINAL_BW (1 mg/kg, 6 h, dose level Low): 217.9 g
- APTT (1 mg/kg, 6 h, dose level Low): 25.1 s
- Bas (1 mg/kg, 6 h, dose level Low): 0%
- Eos (1 mg/kg, 6 h, dose level Low): 1%
- Fbg (1 mg/kg, 6 h, dose level Low): 276 mg/dL
- Hb (1 mg/kg, 6 h, dose level Low): 13.2 g/dL
- Ht (1 mg/kg, 6 h, dose level Low): 39.6%
- Lym (1 mg/kg, 6 h, dose level Low): 65.2%
- MCH (1 mg/kg, 6 h, dose level Low): 21.2 pg
- MCHC (1 mg/kg, 6 h, dose level Low): 33.4%
- MCV (1 mg/kg, 6 h, dose level Low): 63.4 fL
- Mono (1 mg/kg, 6 h, dose level Low): 2.8%
- Neu (1 mg/kg, 6 h, dose level Low): 30%
- PT (1 mg/kg, 6 h, dose level Low): 19.7 s
- Plat (1 mg/kg, 6 h, dose level Low): 107.5 x10_4/uL
- RBC (1 mg/kg, 6 h, dose level Low): 625.2 x10_4/ul
- Ret (1 mg/kg, 6 h, dose level Low): 7.7%
- WBC (1 mg/kg, 6 h, dose level Low): 190 x10_2/uL
- KIDNEY_L (1 mg/kg, 6 h, dose level Low): 0.9 g
- KIDNEY_R (1 mg/kg, 6 h, dose level Low): 1 g
- KIDNEY_TOTAL (1 mg/kg, 6 h, dose level Low): 1.9 g
- LIVER (1 mg/kg, 6 h, dose level Low): 8.6 g
- A/G (1 mg/kg, 6 h, dose level Low): 1.5
- ALP (1 mg/kg, 6 h, dose level Low): 1085.8 IU/L
- ALT (1 mg/kg, 6 h, dose level Low): 45 IU/L
- AST (1 mg/kg, 6 h, dose level Low): 82.6 IU/L
- BUN (1 mg/kg, 6 h, dose level Low): 18.2 mg/dL
- CRE (1 mg/kg, 6 h, dose level Low): 0.1 mg/dL
- Ca (1 mg/kg, 6 h, dose level Low): 8.6 mg/dL
- Cl (1 mg/kg, 6 h, dose level Low): 105.4 meq/L
- DBIL (1 mg/kg, 6 h, dose level Low): 0.004 mg/dL
- GLC (1 mg/kg, 6 h, dose level Low): 146.2 mg/dL
- IP (1 mg/kg, 6 h, dose level Low): 9.4 mg/dL
- K (1 mg/kg, 6 h, dose level Low): 3.6 meq/L
- LDH (1 mg/kg, 6 h, dose level Low): 164.8 IU/L
- Na (1 mg/kg, 6 h, dose level Low): 140.8 meq/L
- PL (1 mg/kg, 6 h, dose level Low): 74 mg/dL
- RALB (1 mg/kg, 6 h, dose level Low): 3 g/dL
- TBIL (1 mg/kg, 6 h, dose level Low): 0.01 mg/dL
- TC (1 mg/kg, 6 h, dose level Low): 42.8 mg/dL
- TG (1 mg/kg, 6 h, dose level Low): 83.8 mg/dL
- TP (1 mg/kg, 6 h, dose level Low): 5 g/dL
- gamma-GTP (1 mg/kg, 6 h, dose level Low): 1.4 IU/L
- TERMINAL_BW (1 mg/kg, 9 h, dose level Low): 216 g
- APTT (1 mg/kg, 9 h, dose level Low): 26 s
- Bas (1 mg/kg, 9 h, dose level Low): 0%
- Eos (1 mg/kg, 9 h, dose level Low): 0%
- Fbg (1 mg/kg, 9 h, dose level Low): 276.6 mg/dL
- Hb (1 mg/kg, 9 h, dose level Low): 13.8 g/dL
- Ht (1 mg/kg, 9 h, dose level Low): 41.2%
- Lym (1 mg/kg, 9 h, dose level Low): 70.2%
- MCH (1 mg/kg, 9 h, dose level Low): 21.1 pg
- MCHC (1 mg/kg, 9 h, dose level Low): 33.4%
- MCV (1 mg/kg, 9 h, dose level Low): 63.1 fL
- Mono (1 mg/kg, 9 h, dose level Low): 1.8%
- Neu (1 mg/kg, 9 h, dose level Low): 26.8%
- PT (1 mg/kg, 9 h, dose level Low): 20.4 s
- Plat (1 mg/kg, 9 h, dose level Low): 122.9 x10_4/uL
- RBC (1 mg/kg, 9 h, dose level Low): 653.8 x10_4/ul
- Ret (1 mg/kg, 9 h, dose level Low): 7%
- WBC (1 mg/kg, 9 h, dose level Low): 187.2 x10_2/uL
- KIDNEY_L (1 mg/kg, 9 h, dose level Low): 0.9 g
- KIDNEY_R (1 mg/kg, 9 h, dose level Low): 0.9 g
- KIDNEY_TOTAL (1 mg/kg, 9 h, dose level Low): 1.9 g
- LIVER (1 mg/kg, 9 h, dose level Low): 8.9 g
- A/G (1 mg/kg, 9 h, dose level Low): 1.4
- ALP (1 mg/kg, 9 h, dose level Low): 1037.4 IU/L
- ALT (1 mg/kg, 9 h, dose level Low): 39.6 IU/L
- AST (1 mg/kg, 9 h, dose level Low): 78.2 IU/L
- BUN (1 mg/kg, 9 h, dose level Low): 16 mg/dL
- CRE (1 mg/kg, 9 h, dose level Low): 0.1 mg/dL
- Ca (1 mg/kg, 9 h, dose level Low): 9.5 mg/dL
- Cl (1 mg/kg, 9 h, dose level Low): 106.2 meq/L
- DBIL (1 mg/kg, 9 h, dose level Low): 0.008 mg/dL
- GLC (1 mg/kg, 9 h, dose level Low): 162.6 mg/dL
- IP (1 mg/kg, 9 h, dose level Low): 8.9 mg/dL
- K (1 mg/kg, 9 h, dose level Low): 3.9 meq/L
- LDH (1 mg/kg, 9 h, dose level Low): 205 IU/L
- Na (1 mg/kg, 9 h, dose level Low): 140.4 meq/L
- PL (1 mg/kg, 9 h, dose level Low): 90 mg/dL
- RALB (1 mg/kg, 9 h, dose level Low): 2.8 g/dL
- TBIL (1 mg/kg, 9 h, dose level Low): 0.022 mg/dL
- TC (1 mg/kg, 9 h, dose level Low): 56.2 mg/dL
- TG (1 mg/kg, 9 h, dose level Low): 38.4 mg/dL
- TP (1 mg/kg, 9 h, dose level Low): 4.8 g/dL
- gamma-GTP (1 mg/kg, 9 h, dose level Low): 1 IU/L
- TERMINAL_BW (1 mg/kg, 24 h, dose level Low): 227.7 g
- APTT (1 mg/kg, 24 h, dose level Low): 23.9 s
- Bas (1 mg/kg, 24 h, dose level Low): 0%
- Eos (1 mg/kg, 24 h, dose level Low): 0.2%
- Fbg (1 mg/kg, 24 h, dose level Low): 334.6 mg/dL
- Hb (1 mg/kg, 24 h, dose level Low): 13.2 g/dL
- Ht (1 mg/kg, 24 h, dose level Low): 39.8%
- Lym (1 mg/kg, 24 h, dose level Low): 85.4%
- MCH (1 mg/kg, 24 h, dose level Low): 20.5 pg
- MCHC (1 mg/kg, 24 h, dose level Low): 33.1%
- MCV (1 mg/kg, 24 h, dose level Low): 61.8 fL
- Mono (1 mg/kg, 24 h, dose level Low): 2%
- Neu (1 mg/kg, 24 h, dose level Low): 10.6%
- PT (1 mg/kg, 24 h, dose level Low): 16.8 s
- Plat (1 mg/kg, 24 h, dose level Low): 115.4 x10_4/uL
- RBC (1 mg/kg, 24 h, dose level Low): 643.4 x10_4/ul
- Ret (1 mg/kg, 24 h, dose level Low): 6%
- WBC (1 mg/kg, 24 h, dose level Low): 148.3 x10_2/uL
- KIDNEY_L (1 mg/kg, 24 h, dose level Low): 1 g
- KIDNEY_R (1 mg/kg, 24 h, dose level Low): 1 g
- KIDNEY_TOTAL (1 mg/kg, 24 h, dose level Low): 2 g
- LIVER (1 mg/kg, 24 h, dose level Low): 10.9 g
- A/G (1 mg/kg, 24 h, dose level Low): 1.3
- ALP (1 mg/kg, 24 h, dose level Low): 1100.2 IU/L
- ALT (1 mg/kg, 24 h, dose level Low): 31.2 IU/L
- AST (1 mg/kg, 24 h, dose level Low): 53.4 IU/L
- BUN (1 mg/kg, 24 h, dose level Low): 12.2 mg/dL
- CRE (1 mg/kg, 24 h, dose level Low): 0.2 mg/dL
- Ca (1 mg/kg, 24 h, dose level Low): 10.2 mg/dL
- Cl (1 mg/kg, 24 h, dose level Low): 107.6 meq/L
- DBIL (1 mg/kg, 24 h, dose level Low): 0.006 mg/dL
- GLC (1 mg/kg, 24 h, dose level Low): 197.2 mg/dL
- IP (1 mg/kg, 24 h, dose level Low): 6.6 mg/dL

From ChEMBL document CHEMBL3885861, “Open TG-GATES”
